Structures are written as SMILES.

Our source for the cytotoxicity values is ChEMBL document CHEMBL3507680, “University of Dundee, Gates Library screen for HepG2 cell viability”.

The nature of the data set: Human HepG2 cell viability assay in 384 well format. Also on record: dose 125 nL, time 70.5 hour; cytotoxicity at 70.5 h: concentration not given beside the values. Type of data set: toxicity, cell-based. The note with it: HepG2 cells, read-out: Inhibition.

With `Cc1nc(NCC23CCCN2CCC3)cc(C2CCCNC2)n1` (configuration not stated), the cytotoxicity at 70.5 h is -4.8%.

As to `N[C@@H]1CCN(Cc2ccccc2CS(=O)(=O)c2ccccc2)C[C@H]1O`, the cytotoxicity at 70.5 h is -8.1%.

As for `Cc1ccc(C#N)c(N2CCCC(c3nccn3Cc3cscn3)C2)n1` (configuration not stated), the cytotoxicity at 70.5 h is -3.22%.

Turning to `Cc1nnc(CN2CCC3(CCC(=O)N(C4CC4)C3)CC2)o1`, the cytotoxicity at 70.5 h was found to be 11.6%.

As to `Cc1cc(-c2nn(C)c(Cl)c2CN2CC[C@H](CO)[C@@H](O)C2)no1`, the cytotoxicity at 70.5 h stood at 8.05%.

For `COC(=O)c1cc2n(n1)CCCN(C(=O)Cc1c[nH]c3ccccc13)C2`, the cytotoxicity at 70.5 h was -13.9%.

`COc1cc(-n2ccnc2-c2ccc(C(=O)O)s2)ccc1NC(C)=O`: the cytotoxicity at 70.5 h was -7.67%.

Regarding `Cc1ccc(C2(O)CCN(C(=O)c3cccc(S(C)(=O)=O)c3)CC2)nc1`, the cytotoxicity at 70.5 h was -4.42%.

Turning to `CC(C)N1CCCC2(CCN(Cc3noc(C4CCCC4)n3)C2)C1=O` (configuration not stated), the cytotoxicity at 70.5 h came to 11%.

Consider `CCc1cnc(N)nc1NCCCn1cc(Cl)cn1`, for which the cytotoxicity at 70.5 h is -5.81%.

Regarding `COc1ccnc(N2CCC3(CCCN(C(C)C)C3=O)C2)n1` (configuration not stated), the cytotoxicity at 70.5 h is -1.71%.

As to `O=C(c1ccc(O)cn1)N1CCOC(c2ccc(Cl)c(Cl)c2)C1` (configuration not stated), the cytotoxicity at 70.5 h was -3.33%.

`CC(CC(F)(F)F)NCc1ccccc1-n1ccnc1` (configuration not stated): the cytotoxicity at 70.5 h was -10.9%.

Consider `c1ccc(-c2nc3c(c(NCCCn4cncn4)n2)CCNCC3)nc1`, for which the cytotoxicity at 70.5 h is -13.5%.

On to `CC(C)(C)c1nc(CN2CCC3(CCCO3)CCC2=O)no1` (configuration not stated), for which the cytotoxicity at 70.5 h was -5.98%.

With `COc1ccc(F)c(CN2CCCC(c3cc(O)nc(C)n3)C2)c1` (configuration not stated), the cytotoxicity at 70.5 h is -3.96%.

In the case of `Cc1ncsc1CCN(C)C(=O)CN1CCOC1=O`, the cytotoxicity at 70.5 h amounted to 8.27%.

`O=c1cc(CN2CC[C@H]3CC[C@@H](C2)N3)c2cccc3c2n1CCC3`: the cytotoxicity at 70.5 h was -14.4%.

Consider `COCCN1CC2(CCCN(c3ncc(Cl)cc3F)C2)CCC1=O` (configuration not stated), for which the cytotoxicity at 70.5 h is 3.19%.

As to `Cc1cc(N2CCC(CO)(CC3CCCCO3)CC2)c2ccccc2n1` (configuration not stated), the cytotoxicity at 70.5 h stood at 2.86%.

`CN(C)c1nc2c(c(N(C)C)n1)CCN(C(=O)CN1C[C@@H]3CC[C@H]1C3)C2`: the cytotoxicity at 70.5 h was -6.59%.

As for `CC1(C)OC(=O)N(CCCC(=O)c2ccc(F)cc2)C1=O`, the cytotoxicity at 70.5 h is -16.8%.

As for `COc1ccccc1-n1cc(CN2CCN(C)[C@@H]3CS(=O)(=O)C[C@@H]32)cn1`, the cytotoxicity at 70.5 h is -7.42%.

Consider `Cc1ccc(CNC(=O)CCN2CCOC(C(F)(F)F)C2)cc1` (configuration not stated), for which the cytotoxicity at 70.5 h was -2.06%.

For `CC(CN1CCCC1)C(=O)NCC1CCN(c2cnn(C)c(=O)c2)CC1` (configuration not stated), the cytotoxicity at 70.5 h is -5.06%.

Turning to `Cc1ccc(Oc2ncccc2CNS(=O)(=O)N2CCOCC2)cn1`, the cytotoxicity at 70.5 h was -4.6%.

Turning to `CC(C)n1ccnc1C1CCCN(c2ccncc2F)C1` (configuration not stated), the cytotoxicity at 70.5 h was -5.94%.

As for `COCC1CCN(S(=O)(=O)NCC2COc3ccccc3C2)CC1` (configuration not stated), the cytotoxicity at 70.5 h was found to be 13.9%.

As for `COc1ccc2c(C)c(C(=O)N3CCC(NC(C)=O)C3)oc2c1` (configuration not stated), the cytotoxicity at 70.5 h is -3.36%.

On to `Cc1c(Cl)c(C(=O)N2C[C@@H](C(=O)O)[C@H](c3cccnc3)C2)nn1C`, for which the cytotoxicity at 70.5 h amounted to 8.35%.

Regarding `Cc1ccc2c(C)c(C(=O)NCCc3csc(N)n3)oc2c1`, the cytotoxicity at 70.5 h was 7.44%.

On to `Cc1ccc(C2(CN(C)Cc3sccc3C)CCNCC2)nc1`, for which the cytotoxicity at 70.5 h was 10.6%.

Consider `Cc1ccc(OC2CCN(C(=O)Cc3c(C)[nH]c(=O)[nH]c3=O)CC2)cc1`, for which the cytotoxicity at 70.5 h was -10.2%.

For `CCc1nc2c(N3CCCC(c4nccn4CCOC)C3)ncnc2o1` (configuration not stated), the cytotoxicity at 70.5 h worked out at 26.1%.

In the case of `CCCn1cnnc1CNC(=O)CC1C(=O)NCCN1CC=C(C)C` (configuration not stated), the cytotoxicity at 70.5 h is -0.65%.

In the case of `O=C(c1ccc(Cl)s1)N1CCCn2nc(CN3CC[C@H](F)C3)cc2C1`, the cytotoxicity at 70.5 h was -10.2%.

As for `CCCn1ncc(CN2CCCC(C(=O)c3ccc(Cl)cc3C)C2)c1C` (configuration not stated), the cytotoxicity at 70.5 h was -7.11%.

On to `Cc1cccc(=O)n1CCCNc1nc(N(C)C)nc2c1CCNCC2`, for which the cytotoxicity at 70.5 h is -3.24%.

Take `Cc1c(NC(=O)c2ncn[nH]2)cccc1C(=O)NC(C)(C)C`: the cytotoxicity at 70.5 h was -12.5%.

In the case of `Cc1nc(-c2c(-c3ccccc3)ncn2CCCN2CCOCC2)c[nH]1`, the cytotoxicity at 70.5 h is -8.17%.

Regarding `Cc1ccc(C(=O)NC2CCN(C)CC2)cc1N(C)S(C)(=O)=O`, the cytotoxicity at 70.5 h is -6.98%.

For the molecule `COc1ccccc1Oc1ncccc1CNC(=O)[C@@H](N)CCO`, the cytotoxicity at 70.5 h stood at 8.7%.

For `CCCn1ncc(-c2ccnc(N[C@@H]3C[C@@H]4CC[C@H]3C4)n2)c1C`, the cytotoxicity at 70.5 h was -2.1%.

Turning to `CC(=O)c1cnc(NCC2OCCc3ccccc32)nc1C` (configuration not stated), the cytotoxicity at 70.5 h was -9.22%.

Consider `CC(c1ccncn1)N(C)Cc1cc(O)c2cc(F)ccc2n1` (configuration not stated), for which the cytotoxicity at 70.5 h was -8.14%.

Turning to `COCCN1C(=O)[C@H]2CC[C@@H]1CN(c1nccc(C)n1)C2`, the cytotoxicity at 70.5 h is -9.1%.

On to `CC(C(N)=O)N1CCc2onc(-c3cccc(F)c3)c2C1` (configuration not stated), for which the cytotoxicity at 70.5 h is -12.5%.

For the molecule `CNc1ncc(C(=O)N2CCCC(CO)(CCCOC)C2)cn1` (configuration not stated), the cytotoxicity at 70.5 h came out at 4.14%.

As for `COc1ccc(C)cc1NC(=O)c1coc(C)n1`, the cytotoxicity at 70.5 h is -5.37%.

Regarding `C=C(C)COc1cccc(C(=O)NCCCc2nnn[nH]2)c1`, the cytotoxicity at 70.5 h is -12.4%.

For the molecule `COc1cc(C)cc(C(C(=O)O)N(C)Cc2cnn(C)c2)c1OC` (configuration not stated), the cytotoxicity at 70.5 h came out at 4.79%.

`Cc1cnc(NCCCN2CCc3ccccc32)nc1`: the cytotoxicity at 70.5 h is -3.85%.

As for `O=C1N(c2ccccc2)Cc2n[nH]c(=O)n21`, the cytotoxicity at 70.5 h was -0.951%.

Consider `Cc1ccc(C(=O)NCCC2CCN(C)CC2)cc1N(C)S(C)(=O)=O`, for which the cytotoxicity at 70.5 h is 24%.

As for `CN(C)[C@H]1CCCCN(C(=O)c2cccc(N3CCS(=O)(=O)CC3)c2)C1`, the cytotoxicity at 70.5 h was -8.16%.

For the molecule `CC(C)n1cc(CN(Cc2ccc(F)cc2)CC2CCCO2)cn1` (configuration not stated), the cytotoxicity at 70.5 h amounted to 15.6%.

As for `Cc1cnn(CCCN2C(=O)CCc3ccccc32)c1`, the cytotoxicity at 70.5 h came to 11.4%.

In the case of `OC1(c2cn(CC3CCN(C4CCSC4)CC3)nn2)CCCC1` (configuration not stated), the cytotoxicity at 70.5 h was 1.14%.

In the case of `COCc1ncc(CN(Cc2ccncc2)Cc2ccc(C)s2)cn1`, the cytotoxicity at 70.5 h was -6.86%.

As to `COc1cccc(C(=O)Nc2ccc(OC3CCN(C)CC3)cc2)c1`, the cytotoxicity at 70.5 h is -4.5%.

In the case of `CCN1CCN(S(=O)(=O)c2ccc(Cc3cc(C)n[nH]c3=O)cc2)CC1`, the cytotoxicity at 70.5 h is -10.8%.

Take `O=C1N(c2ccc(F)cc2)Cc2n[nH]c(=O)n21`: the cytotoxicity at 70.5 h was -2.51%.

On to `CC1CCN(CCCNC(=O)c2ccc(N(C)S(C)(=O)=O)cc2Cl)CC1`, for which the cytotoxicity at 70.5 h was -4.93%.

Regarding `COCCCn1cnnc1C(C)NC(=O)c1[nH]c2ccc(C)cc2c1C` (configuration not stated), the cytotoxicity at 70.5 h is -4.22%.

For the molecule `CCCS(=O)(=O)N1CCN(c2cc(-n3ccnc3)nc(C)n2)CC1`, the cytotoxicity at 70.5 h was -3.96%.

On to `CC(=O)c1cc(CN2C[C@H]3CC[C@@H]2CN(Cc2c(C)noc2C)C3)cs1`, for which the cytotoxicity at 70.5 h was -8.51%.

Take `CCSc1nsc(NC(=O)COc2ccc3c(c2)OCO3)n1`: the cytotoxicity at 70.5 h is -8.05%.

Turning to `CN(C)S(=O)(=O)N1CC[C@]2(O)CCN(c3ncccn3)C[C@@H]2C1`, the cytotoxicity at 70.5 h is -9.31%.

Consider `O=C(Cc1n[nH]c(-c2cncc(Br)c2)n1)NCc1ccccn1`, for which the cytotoxicity at 70.5 h is -8.81%.

`Cc1ccc2c(C(=O)N(C)C)cc(-c3cnn(CCO)c3)nc2c1C`: the cytotoxicity at 70.5 h was -3.4%.

Turning to `CCOCCC(=O)N1CCCC(CO)(CC2CC2)C1` (configuration not stated), the cytotoxicity at 70.5 h is -11%.

`Cc1ccc2[nH]c(=O)cc(C(=O)NCCCn3nccc3C3CC3)c2c1`: the cytotoxicity at 70.5 h was -16%.

Take `COC[C@]1(O)CCN(c2cc(N3CCOCC3)ncn2)CC1(C)C`: the cytotoxicity at 70.5 h was -9.52%.

As for `O[C@H]1[C@H](n2cc(CN3CCCC3)nn2)c2ccccc2C12CCNCC2`, the cytotoxicity at 70.5 h was -7.31%.

Take `COc1ccccc1C(=O)Nc1ccc(OC2CCN(C)CC2)cc1`: the cytotoxicity at 70.5 h was -6.64%.

Consider `O=c1[nH]c(NC2CCCC2)nc2nccc(-c3ccco3)c12`, for which the cytotoxicity at 70.5 h was -8.71%.

As to `CCCc1nc(C(=O)N[C@H]2COC[C@@H]2N2CCN(C)CC2)cs1`, the cytotoxicity at 70.5 h was -7.8%.

Turning to `CN1CC(c2n[nH]c(=O)n2-c2cccc(Cl)c2)CC1=O` (configuration not stated), the cytotoxicity at 70.5 h is -12.8%.

As for `Cc1cc(C)cc(S(=O)(=O)NCC2CNCCOC2)c1` (configuration not stated), the cytotoxicity at 70.5 h was -1.55%.

Regarding `O=C(O)CSc1nnc(-c2cn[nH]c2)n1-c1ccccc1Cl`, the cytotoxicity at 70.5 h was 17.6%.

As to `CC(=O)NCCOc1cccc(Br)c1`, the cytotoxicity at 70.5 h was 2.45%.

In the case of `COC(=O)c1cc2c(=O)[nH]c(=O)n(CCc3ccccc3)c2nc1C`, the cytotoxicity at 70.5 h came out at 4.39%.

Consider `CCC(Oc1ccc(N(C)S(C)(=O)=O)cc1)C(=O)NC` (configuration not stated), for which the cytotoxicity at 70.5 h was -1.39%.

For `CSc1nccc(N2C[C@@H](CN3CCCCC3)[C@@H](CO)C2)n1`, the cytotoxicity at 70.5 h was determined as 27.1%.

In the case of `Cc1cccc(C2CC(=O)Nc3c2c(=O)[nH]n3C(C)C)c1` (configuration not stated), the cytotoxicity at 70.5 h was -11.1%.

For the molecule `O=C(NCCNc1cc(N2CCCC2)ncn1)c1cnccn1`, the cytotoxicity at 70.5 h is -7.66%.

In the case of `CCC(=O)NC(C)c1ccccc1C` (configuration not stated), the cytotoxicity at 70.5 h is 0.0127%.

For the molecule `C[C@@H]1CN(CCC(=O)N(C)Cc2ccccc2)CC[C@@]1(O)C1CCC1`, the cytotoxicity at 70.5 h is 21.4%.

Turning to `CS(=O)(=O)N1CCN(c2ccnc(N3CCCCC3)n2)CC1`, the cytotoxicity at 70.5 h is -6.15%.

Turning to `Cc1nc2nc(C)c3c(=O)n(-c4ccn[nH]4)ccc3n2n1`, the cytotoxicity at 70.5 h came out at 10.9%.

Take `NC(=O)c1ccc(OCCCN2CCC3(CC2)OCCCC3O)cc1` (configuration not stated): the cytotoxicity at 70.5 h was -1.53%.

`CCC(C)c1ccc(NC(=O)C2CCN(C(=O)N(C)C)CC2)cc1` (configuration not stated): the cytotoxicity at 70.5 h is -4.2%.

On to `Cc1onc(N)c1S(=O)(=O)N1CCCCC1C` (configuration not stated), for which the cytotoxicity at 70.5 h was -2.67%.

Consider `Cc1cccnc1CN(C)C(C(=O)O)c1ccc(-n2cccn2)cc1` (configuration not stated), for which the cytotoxicity at 70.5 h was -2.91%.

In the case of `Nc1ccc(C(=O)N2CCCC(C(=O)CCc3ccccc3)C2)cn1` (configuration not stated), the cytotoxicity at 70.5 h is -20%.

Consider `CC(C)(C)c1cn(CC2CCCN(c3cnc4ccccc4n3)C2)nn1` (configuration not stated), for which the cytotoxicity at 70.5 h was 0.262%.

`COCc1nc2ncc3c(=O)n(-c4ccccc4OC)ccc3n2n1`: the cytotoxicity at 70.5 h is -5.8%.
